Assay [1] addresses Cathepsin D (Homo sapiens (Human), UniProt P07339). Put plainly: In vitro enzymatic Cat D (Cathepsin D) FRET assay. It counts as biochemical. Conditions: average IC50. The method, then:
In Vitro Enzymatic Cat D (Cathepsin D) FRET (Fluorescence Resonance Energy Transfer) Assay
Recombinant CathepsinD was expressed in CHO cells. The assay buffer for CathepsinD is 0.05 M citrate pH 3.5, 10% DMSO final, 5 mM CHAPS. […] The assays are effectively started by the addition of different FRET substrates (20 nM for CathepsinD) and the combination is incubated for one hour. The FRET assay is terminated with by addition of Tris buffer, which raises the pH to neutrality, and the fluorescence is determined. The FRET substrate is a peptide with commercially available fluorophore and quencher, on opposite sides of the BACE cleavage site. […] Proteolytic cleavage of the FRET substrate releases quenching of fluorescence (CathepsinD excitation 500 nm and emission 580 nm).

In assay [2] the test system is Aβ40 in conditioned medium of cells stably expressing Amyloid Precursor Protein (APP). Put plainly: In vitro BACE cell-based assay (HEK cell assay, Aβ40 sandwich ELISA). As to conditions: average IC50, Aβ40, 24 h incubation. The method, then: In Vitro BACE Cell-Based Assay
The cell-based assay measures inhibition or reduction of Aβ40 in conditioned medium of test compound treated cells expressing amyloid precursor protein.
Cells stably expressing Amyloid Precursor Protein (APP) were plated at a density of 40K cells/well in 96 well plates (Costar). The cells were cultivated for 24 hours at 37° C. and 5% CO2 in DMEM supplemented with 10% FBS. The test compounds were then added to cells in 10-point dose response concentrations with the starting concentration being either 100 μM or 10 μM. The compounds were diluted from stock solutions in DMSO and the final DMSO concentration of the test compounds on cells was 0.1%. After 24 h of incubation with the test compounds the supernatant conditioned media was collected and the Aβ 40 levels were determined using a sandwich ELISA. The IC50 of the compound was calculated from the percent of control or percent inhibition of Aβ 40 as a function of the concentration of the test compound.
The sandwich ELISA to detect Aβ 40 was performed in 96 well microtiter plates, which were pre-treated with goat anti-rabbit IgG (Pierce). The capture and detecting antibody pair that were used to detect Aβ 40 from cell supernatants were affinity purified pAb40 (Biosource) and biotinylated 6E10 (Signet Labs Inc.), respectively. The optimal concentration for the pAb40 antibody was 3 μg/ml in Superblock/TBS (Pierce) that was supplemented with 0.05% Tween 20 (Sigma).
Cellular supernatants were incubated with the capture antibody for 3 h at 4° C., followed by 3 wash steps in TBS-tween (0.05%). The detecting antibody incubation was for 2 h at 4° C., again followed by the wash steps as described previously. The final readout of the ELISA is Time-Resolved Fluorescence (counts per minute) using Delfia reagents Streptavidin-Europium and Enhancement solutions (Perkin Elmer) and the Victor 2 multilabel counter (Perkin Elmer).

The target in assay [3] is BACE 1 (beta secretase enzyme) (Homo sapiens (Human), UniProt P56817). Put plainly: In vitro enzymatic BACE FRET assay. It counts as biochemical. As to conditions: average IC50. The method, then: In Vitro Enzymatic BACE FRET (Fluorescence Resonance Energy Transfer) Assay
The assay buffer used in this screen is 0.05 M acetate, pH 4.2, 10% DMSO final, 100 uM genapol (which is a nonionic detergent, below its Critical Micelle Concentration). […] This assay is effectively started by the addition of FRET substrate (50 nM) and the combination is incubated for one hour. The FRET assay is terminated with by addition of Tris buffer, which raises the pH to neutrality, and the fluorescence is determined. The FRET substrate is a peptide with commercially available fluorophore and quencher, on opposite sides of the BACE cleavage site. Proteolytic cleavage of the FRET substrate releases quenching of fluorescence (excitation […] and […]).

Among the data in patent US9296759B2, “Amino-oxazine and amino-dihydrothiazine compounds as beta-secretase modulators and methods of use” (AMGEN INC., priority 2011, dated 2016) are IC50 values, retold here.

Chain of BACE 1 (beta secretase enzyme) (P56817 46-501): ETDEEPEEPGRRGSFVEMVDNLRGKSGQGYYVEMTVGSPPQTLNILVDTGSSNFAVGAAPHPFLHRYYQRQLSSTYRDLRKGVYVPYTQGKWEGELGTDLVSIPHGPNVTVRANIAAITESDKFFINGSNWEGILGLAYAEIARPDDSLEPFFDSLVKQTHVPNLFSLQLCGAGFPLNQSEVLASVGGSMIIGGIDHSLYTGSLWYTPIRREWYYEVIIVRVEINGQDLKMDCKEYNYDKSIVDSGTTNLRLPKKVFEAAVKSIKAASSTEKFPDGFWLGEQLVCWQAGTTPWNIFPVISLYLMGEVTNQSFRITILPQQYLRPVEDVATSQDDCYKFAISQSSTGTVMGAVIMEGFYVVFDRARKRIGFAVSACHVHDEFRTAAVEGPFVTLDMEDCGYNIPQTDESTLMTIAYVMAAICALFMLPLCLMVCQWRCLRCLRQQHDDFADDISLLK
Chain of Cathepsin D (P07339 65-412, species assumed): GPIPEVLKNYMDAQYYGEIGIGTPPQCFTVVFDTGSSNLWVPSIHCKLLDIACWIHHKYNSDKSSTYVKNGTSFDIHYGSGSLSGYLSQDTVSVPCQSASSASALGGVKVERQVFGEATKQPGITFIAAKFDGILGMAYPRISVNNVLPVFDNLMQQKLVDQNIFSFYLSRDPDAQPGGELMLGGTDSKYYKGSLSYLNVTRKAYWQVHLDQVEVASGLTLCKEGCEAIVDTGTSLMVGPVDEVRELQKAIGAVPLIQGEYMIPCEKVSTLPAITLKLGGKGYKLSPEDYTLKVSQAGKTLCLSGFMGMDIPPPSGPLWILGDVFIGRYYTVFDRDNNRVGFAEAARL

For `CCOc1cccnc1Nc1ccc2c(c1)[C@@]1(CCOC(N)=N1)c1cc(OC)cc(F)c1O2` [Example 31, (4S)-N~2~′-(3-ethoxy-2-pyridinyl)-5′-fluoro-7′-methoxy-5,6-dihydrospiro[1,3-oxazine-4,9′-xanthene]-2,2′-diamine], the 50% inhibitory concentration (IC50) turned out to be 400 µM in assay [1], 0.0642 µM in assay [2] and 0.0696 µM in assay [3].

For the molecule `CCOc1cccnc1Nc1ccc2c(c1)[C@@]1(CCSC(N)=N1)c1cc(OC)cc(F)c1O2` [Example 33, (4S)-N~2~′-(3-ethoxy-2-pyridinyl)-5′-fluoro-7′-methoxy-5,6-dihydrospiro[1,3-thiazine-4,9′-xanthene]-2,2′-diamine], the IC50 in assay [1] came to 262 µM; in assay [2], 0.0659 µM; in assay [3], 0.0486 µM.

For the molecule `NC1=N[C@@]2(CCO1)c1cc(NC(=O)c3ccc(Cl)cn3)ccc1Oc1ncc(C3=CCCOC3)cc12` [Example 35, N-((5S)-2′-amino-3-(5,6-dihydro-2H-pyran-3-yl)-5′,6′-dihydrospiro[chromeno[2,3-b]pyridine-5,4′-[1,3]oxazin]-7-yl)-5-chloro-2-pyridinecarboxamide], the half-inhibitory concentration (IC50) in assay [1] is above 1.65 µM; in assay [2] (Homo sapiens, HEK293), 0.0033 µM; in assay [3] it was 0.0051 µM.

For the molecule `NC1=N[C@@]2(CCO1)c1cc(NC(=O)c3ccc(Cl)cn3)ccc1Oc1ncccc12` [Example 36, N-((5S)-2′-amino-5′,6′-dihydrospiro[chromeno[2,3-b]pyridine-5,4′-[1,3]oxazin]-7-yl)-5-chloro-2-pyridinecarboxamide], the IC50 is above 400 µM in assay [1]; 0.0148 µM in assay [2] (Homo sapiens, HEK293); 0.0451 µM in assay [3].

As to `NC1=N[C@@]2(CCO1)c1cc(NC(=O)c3ccc(Cl)cc3F)ccc1Oc1ncc(Br)cc12` [Example 37, N-((5S)-2′-amino-3-bromo-5′,6′-dihydrospiro[chromeno[2,3-b]pyridine-5,4′-[1,3]oxazin]-7-yl)-4-chloro-2-fluorobenzamide], the IC50 in assay [1] was above 400 µM; in assay [2] (Homo sapiens, HEK293), 0.125 µM; in assay [3], 0.12 µM.

Consider `NC1=N[C@@]2(CCO1)c1cc(NC(=O)c3cnc(O)cn3)ccc1Oc1ncc(Br)cc12` [Example 43, N-((5S)-2′-amino-3-bromo-5′,6′-dihydrospiro[chromeno[2,3-b]pyridine-5,4′-[1,3]oxazin]-7-yl)-5-hydroxy-2-pyrazinecarboxamide], for which the IC50 in assay [1] is above 4.94 µM; in assay [2] (Homo sapiens, HEK293), 1.66 µM; in assay [3] it was 0.113 µM.

Consider `COc1cnc(C(=O)Nc2ccc3c(c2)[C@@]2(CCOC(N)=N2)c2cc(Br)cnc2O3)cn1` [Example 44, N-((5S)-2′-amino-3-bromo-5′,6′-dihydrospiro[chromeno[2,3-b]pyridine-5,4′-[1,3]oxazin]-7-yl)-5-methoxy-2-pyrazinecarboxamide], for which the IC50 in assay [1] is above 1.65 µM; in assay [2] (Homo sapiens, HEK293), 0.011 µM; in assay [3], 0.0476 µM.

Turning to `N#Cc1ccc(C(=O)Nc2ccc3c(c2)[C@@]2(CCOC(N)=N2)c2cc(Cl)nc(F)c2O3)nc1` [Example 46, N-((5S)-2′-amino-3-chloro-1-fluoro-5′,6′-dihydrospiro[chromeno[2,3-c]pyridine-5,4′-[1,3]oxazin]-7-yl)-5-cyano-2-pyridinecarboxamide], the half-maximal inhibitory concentration (IC50) in assay [1] was above 400 µM; in assay [2] (Homo sapiens, HEK293), 0.023 µM; in assay [3], 0.007 µM.

On to `NC1=N[C@@]2(CCO1)c1cc(NC(=O)c3cnc(Cl)cn3)ccc1Oc1c2cc(Cl)nc1F` [Example 49, N-((5S)-2′-amino-3-chloro-1-fluoro-5′,6′-dihydrospiro[chromeno[2,3-c]pyridine-5,4′-[1,3]oxazin]-7-yl)-5-chloro-2-pyrazinecarboxamide], for which the IC50 came out at 323 µM in assay [1]; 0.184 µM in assay [2] (Homo sapiens, HEK293); 0.0161 µM in assay [3].

Consider `COc1cc(F)c2c(c1)[C@]1(CCSC(N)=N1)c1cc(NC(=O)c3cnc(OC)cn3)ccc1O2` [Example 50, N-((4S)-2-amino-5′-fluoro-7′-methoxy-5,6-dihydrospiro[1,3-thiazine-4,9′-xanthen]-2′-yl)-5-methoxy-2-pyrazinecarboxamide], for which the IC50 in assay [1] was above 400 µM; in assay [2] (Homo sapiens, HEK293) it was 0.0465 µM; in assay [3], 0.0405 µM.

In the case of `N#Cc1ccc(C(=O)Nc2ccc3c(c2)[C@@]2(CCOC(N)=N2)c2cc(C4=CCCOC4)nc(F)c2O3)nc1` [Example 52, N-((5S)-2′-amino-3-(5,6-dihydro-2H-pyran-3-yl)-1-fluoro-5′,6′-dihydrospiro[chromeno[2,3-c]pyridine-5,4′-[1,3]oxazin]-7-yl)-5-cyano-2-pyridinecarboxamide], the half-inhibitory concentration (IC50) in assay [1] came out at 132 µM; in assay [2] (Homo sapiens, HEK293) it was 0.0005 µM; in assay [3], 0.002 µM.

In the case of `COc1nc(C2CC2)cc2c1Oc1ccc(NC(=O)c3ccc(Cl)cn3)cc1[C@@]21CCOC(N)=N1` [Example 53, N-((5S)-2′-amino-3-cyclopropyl-1-methoxy-5′,6′-dihydrospiro[chromeno[2,3-c]pyridine-5,4′-[1,3]oxazin]-7-yl)-5-chloro-2-pyridinecarboxamide], the concentration for half-maximal inhibition (IC50) in assay [1] is above 400 µM; in assay [2] (Homo sapiens, HEK293), 0.0227 µM; in assay [3], 0.0129 µM.

For `COc1cnc(C(=O)Nc2ccc3c(c2)[C@]2(CCSC(N)=N2)c2cc(Cl)nc(F)c2O3)cn1` [Example 55, N-((5R)-2′-amino-3-chloro-1-fluoro-5′,6′-dihydrospiro[chromeno[2,3-c]pyridine-5,4′-[1,3]thiazin]-7-yl)-5-methoxy-2-pyrazinecarboxamide], the IC50 amounted to 69.9 µM in assay [1]; 3.09 µM in assay [2] (Homo sapiens, HEK293); 0.913 µM in assay [3].

For the molecule `COc1cnc(C(=O)Nc2ccc3c(c2)[C@@]2(CCSC(N)=N2)c2cc(Cl)nc(F)c2O3)cn1` [Example 56, N-((5S)-2′-amino-3-chloro-1-fluoro-5′,6′-dihydrospiro[chromeno[2,3-c]pyridine-5,4′-[1,3]thiazin]-7-yl)-5-methoxy-2-pyrazinecarboxamide], the half-maximal inhibitory concentration (IC50) was above 400 µM in assay [1]; 0.167 µM in assay [2] (Homo sapiens, HEK293); 0.0062 µM in assay [3].

`COc1cc(F)c2c(c1)[C@]1(CCOC(N)=N1)c1cc(Nc3ncccc3OCc3ccccc3)ccc1O2` [Example 57, (4S)-N~2~′-(3-(benzyloxy)-2-pyridinyl)-5′-fluoro-7′-methoxy-5,6-dihydrospiro[1,3-oxazine-4,9′-xanthene]-2,2′-diamine]: the IC50 in assay [1] was 400 µM; in assay [2] it was 3.51 µM; in assay [3] it was 7.29 µM.

In the case of `COc1cnc(C(=O)Nc2ccc3c(c2)[C@@]2(CCSC(N)=N2)c2cc(C4=CCOCC4)cc(F)c2O3)cn1` [Example 60, N-((4S)-2-amino-7′-(3,6-dihydro-2H-pyran-4-yl)-5′-fluoro-5,6-dihydrospiro[1,3-thiazine-4,9′-xanthen]-2′-yl)-5-methoxy-2-pyrazinecarboxamide], the IC50 is 174 µM in assay [1]; 0.0043 µM in assay [2] (Homo sapiens, HEK293); 0.0062 µM in assay [3].

On to `COc1nc(C2=CCOCC2)cc2c1Oc1ccc(NC(=O)c3ccc(Cl)cn3)cc1[C@@]21CCOC(N)=N1` [Example 62, N-((5S)-2′-amino-3-(3,6-dihydro-2H-pyran-4-yl)-1-methoxy-5′,6′-dihydrospiro[chromeno[2,3-c]pyridine-5,4′-[1,3]oxazin]-7-yl)-5-chloro-2-pyridinecarboxamide], for which the 50% inhibitory concentration (IC50) in assay [1] is 400 µM; in assay [2] (Homo sapiens, HEK293) it was 0.0036 µM; in assay [3], 0.007 µM.

For the molecule `COc1cnc(C(=O)Nc2ccc3c(c2)[C@@]2(CCSC(N)=N2)c2cc(-c4cncc(F)c4)nc(F)c2O3)cn1` [Example 112, N-((5S)-2′-amino-1-fluoro-3-(5-fluoro-3-pyridinyl)-5′,6′-dihydrospiro[chromeno[2,3-c]pyridine-5,4′-[1,3]thiazin]-7-yl)-5-methoxy-2-pyrazinecarboxamide], the half-inhibitory concentration (IC50) in assay [2] (Homo sapiens, HEK293) worked out at 0.0012 µM; in assay [3], 0.0028 µM.
